Laboratory results: patent US11279733B2, “Peptide antibiotics” (priority 2017, dated 2022)
≈ marks a conversion by molar mass, not a printed value. Read-outs that look alike come from different tables or passages of the source. Positions of bridges follow the written chain, without caps; N, C: chain ends. Non-standard residues stand in square brackets, D forms with d. Residues, ends and D or L forms follow the SMILES beside them. *: point of attachment. Decanoyl(3R-OH) = CCCCCCC[C@@H](O)CC(=O)*; Phe(4-NH2) = Nc1ccc(C[C@H](N)C(=O)O)cc1; dDab = NCC[C@@H](N)C(=O)O; Dab = NCC[C@H](N)C(=O)O

Key:
in vitro = conditions: human
Experimental: Cytotoxicity of the synthesised peptides was evaluated by comparison with commercially available colistin (polymyxin E), polymyxin B (Sigma chemical Co., St. Louis, Mo., U.S.A.) and synthetic octapeptin C4 by conducting lactate dehydrogenase (LDH) assay. CC50 values calculated based on curve fitting of dose dependent inhibition of cell growth represented the cytotoxicity of the peptide. Human kidney 2 (HK2) cells were seeded as 2000 cells per well in a 384 well cell culture plate in a final volume of 20 μL in DMEM/F12 medium (Invitrogen #11330057), in which 10% of FBS was added. Cells were incubated for 24 hours at 37° C., 5% CO2 to allow cells to attach to the plates. Similar conditions were employed for HEK293 and HepG2 cytotoxicity assays.
Colistin and polymyxin B were tested from a range of 2 mM to 0.9 μM. 120 μL of the 1 mM stock solutions in water of each synthesised peptide were freeze-dried and processed for LDH assay. After freeze-dry procedure, the compounds were reconstituted into 600 μM solutions using culture media. All tested compounds were diluted from 600 μM to 0.27 μM in 3-fold dilutions. Then 20 μL of each dilution was added into 20 uL of culture medium in quadruplicate to reach the final concentrations. The cells were incubated with the compounds for 24 h at 37° C., 5% CO2. After the incubation, 5 μL of culture medium was added to 50 μL of LDH assay buffer and incubated for 1 h at room temperature. The absorbance was read at 450 nm using Polarstar. The data was then analysed by Prism software. […] Nephrotoxicity Assessment in Human Proximal Tubule Cells.

[1] = system: K. pneumoniae ATCC BAA-2146, NDM-1 pos; conditions: ATCC BAA-2146
Outline: (§1)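 Mid-log cultures grown in Mueller Hinton broth at 37° C were tested by 2-fold broth microdilution at 5×10^5 CFU/mL final. Compounds were dissolved in water and tested over a final range of 32 to 0.015 μg/mL.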

[2] = system: K. pneumoniae ATCC 700603, MDR; conditions: ATCC 700603
Outline: as §1

[3] = system: P. aeruginosa GN_043, PmxR
Outline: as §1

K. pneumoniae ATCC 13883 = conditions: ATCC 13883
Outline: as §1

P. aeruginosa ATCC 27853 = conditions: ATCC 27853
Outline: as §1

E. coli ATCC 25922 = conditions: ATCC 25922
Outline: as §1

A. baumannii ATCC 19606 = conditions: ATCC 19606
Outline: as §1

Row | Compound | CC50 at 24 h (in vitro) [µM] | MIC K. pneumoniae ATCC BAA-2146, NDM-1 pos [1] [µg/mL] | MIC K. pneumoniae ATCC 700603, MDR [2] [µg/mL] | MIC P. aeruginosa GN_043, PmxR ([3]; P. aeruginosa GN_043, PmxR) [µg/mL] | MIC K. pneumoniae ATCC 13883 (K. pneumoniae ATCC 13883) [µg/mL] | MIC P. aeruginosa ATCC 27853 (P. aeruginosa ATCC 27853) [µg/mL] | MIC E. coli ATCC 25922 (E. coli ATCC 25922) [µg/mL] | MIC A. baumannii ATCC 19606 (A. baumannii ATCC 19606) [µg/mL] | MIC, K. pneumoniae ATCC BAA-2146, NDM-1 pos [1] [µg/mL] | MIC, K. pneumoniae ATCC 700603, MDR [2] [µg/mL] | MIC P. aeruginosa GN_043, PmxR ([3]; Table 6, polymyxin-resistant) [µg/mL] | MIC, K. pneumoniae ATCC 13883 (K. pneumoniae ATCC 13883) [µg/mL] | MIC, P. aeruginosa ATCC 27853 (P. aeruginosa ATCC 27853) [µg/mL] | MIC, E. coli ATCC 25922 (E. coli ATCC 25922) [µg/mL] | MIC, A. baumannii ATCC 19606 (A. baumannii ATCC 19606) [µg/mL]
1 | CCCCCCC[C@@H](O)CC(=O)N[C@H](CO)C(=O)N[C@H]1CCNC(=O)[C@H]([C@@H](C)O)NC(=O)[C@H](CCN)NC(=O)[C@H](CCN)NC(=O)[C@H](CC(C)C)NC(=O)[C@@H](Cc2ccccc2)NC(=O)[C@H](CCN)NC1=O [compound 754, 3(R)OH-nC9CO-D-Ser-cyc[L-Dab-L-Dab-D-Phe-L-Leu-L-Dab-L-Dab-L-Thr]] ({Decanoyl(3R-OH)}-[dS][Dab][Dab][dF]L[Dab][Dab]T; lactam 2-C) | 154 | 32 (≈ 31.4 µM) | 32 (≈ 31.4 µM) | >32 | 32 (≈ 31.4 µM) | 4 (≈ 3.92 µM) | 32 (≈ 31.4 µM) | 16 (≈ 15.7 µM) | – | – | – | – | – | – | –
2 | CCCCCCC[C@@H](O)CC(=O)N[C@H](CO)C(=O)N[C@H]1CCNC(=O)[C@H](CC(C)C)NC(=O)[C@H](CCN)NC(=O)[C@H](CCN)NC(=O)[C@H](CC(C)C)NC(=O)[C@@H](Cc2ccccc2)NC(=O)[C@H](CCN)NC1=O [compound 918, 3(R)OH-nC9CO-D-Ser-cyc[L-Dab-L-Dab-D-Phe-L-Leu-L-Dab-L-Dab-L-Leu]] ({Decanoyl(3R-OH)}-[dS][Dab][Dab][dF]L[Dab][Dab]L; lactam 2-C) | 113 | – | – | – | – | – | – | – | 4 (≈ 3.88 µM) | 8 (≈ 7.76 µM) | >32 | 8 (≈ 7.76 µM) | 8 (≈ 7.76 µM) | 8 (≈ 7.76 µM) | 4 (≈ 3.88 µM)
3 | CCCCCCC[C@@H](O)CC(=O)N[C@H](CCN)C(=O)N[C@H]1CCNC(=O)[C@H]([C@@H](C)O)NC(=O)[C@H](Cc2ccc(N)cc2)NC(=O)[C@H](CCN)NC(=O)[C@H](CC(C)C)NC(=O)[C@@H](Cc2ccccc2)NC(=O)[C@H](CCN)NC1=O [compound 5605, 3(R)OH-nC9CO-D-Dab-cyc[L-Dab-L-Dab-D-Phe-L-Leu-L-Dab-L-4NH2Phe-L-Thr]] ({Decanoyl(3R-OH)}-[dDab][Dab][Dab][dF]L[Dab][Phe(4-NH2)]T; lactam 2-C) | 115 | 16 (≈ 14.6 µM) | 32 (≈ 29.2 µM) | – | 16 (≈ 14.6 µM) | 8 (≈ 7.31 µM) | 16 (≈ 14.6 µM) | – | – | – | – | – | – | – | –
4 | CCCCCCC[C@@H](O)CC(=O)N[C@H](CCN)C(=O)N[C@H]1CCNC(=O)[C@H]([C@@H](C)O)NC(=O)[C@H](CCCNC(=N)N)NC(=O)[C@H](CCN)NC(=O)[C@H](CC(C)C)NC(=O)[C@@H](Cc2ccccc2)NC(=O)[C@H](CCN)NC1=O [compound 5606, 3(R)OH-nC9CO-D-Dab-cyc[L-Dab-L-Dab-D-Phe-L-Leu-L-Dab-L-Arg-L-Thr]] ({Decanoyl(3R-OH)}-[dDab][Dab][Dab][dF]L[Dab]RT; lactam 2-C) | 137 | >32 | 16 (≈ 14.7 µM) | – | 32 (≈ 29.4 µM) | 2 (≈ 1.84 µM) | >32 | – | – | – | – | – | – | – | –
